# Laboratory results taken from patent US4482553A, “Benzothienylglycyl cephalosporin derivatives” (priority 1983, dated 1984).
# Like-named read-outs stand apart in the source and are kept apart here.
# Columns and labels:
# Assay type in all cases: cell-based
# Staph. aureus [1] = assay: standard in vitro agar dilution MIC (Table I), Staph. aureus
# Strep. PN = assay: standard in vitro agar dilution MIC (Table I), Strep. PN; settings: strain PARK
# Staph. epi [2] = assay: standard in vitro agar dilution MIC (Table I), Staph. epi
# Strep. A = assay: standard in vitro agar dilution MIC (Table I), Strep. A
# Strep. D = assay: standard in vitro agar dilution MIC (Table I), Strep. D
# H. influ. [3] = assay: standard in vitro agar dilution MIC (Table I), H. influ.
# Description: (§1) The antibacterial activity of several compounds of the invention has been determined in standard in vitro agar dilution assays against a variety of gram positive and gram negative microorganisms. The following Tables present typical minimum inhibitory concentrations (MIC's) in μg/ml for several compounds of the invention when evaluated against the indicated microorganisms. MIC's for several known compounds are also presented for comparison.
# E. coli = assay: standard in vitro agar dilution MIC (Table I), E. coli; settings: Escherichia coli
# Klebsiella = assay: standard in vitro agar dilution MIC (Table I), Klebsiella
# Staph. epi [4] = assay: Expanded Spectrum MIC (Table II), Staph. epi
# Description: as §1
# Staph. aureus [5] = assay: Expanded Spectrum MIC (Table II), Staph. aureus
# Description: as §1
# H. influ. [6] = assay: Expanded Spectrum MIC (Table II), H. influ.
# Description: as §1
# [7] = Staphylococcus aureus, strain V41, read-out: MIC
# [8] = Staphylococcus aureus, strain X1.1, read-out: MIC
# [9] = Staphylococcus aureus, strain X400, read-out: MIC
# [10] = Table I, agar dilution, strain 222, read-out: MIC
# [11] = Table I, agar dilution, strain C203, read-out: MIC
# [12] = Table I, agar dilution, strain EPI1, read-out: MIC
# [13] = Klebsiella, Table I, agar dilution, strain X26, read-out: MIC
# [14] = Klebsiella, Table I, agar dilution, strain X68, read-out: MIC
compound,measurement,setting,value
"COc1c([C@H](N)C(=O)NC2C(=O)N3C(C(=O)O)=C(C)CSC23)sc2ccccc12 (stereo partly drawn) [Ex. 9B, L-7-(3-methoxy-2-benzothienylglycylamido)-3-methyl-3-cephem-4-carboxylic acid]",MIC,"Staph. aureus [1]; Staphylococcus aureus, strain S13E",> 128 µg/mL
same,MIC,Staph. aureus [1]; [7],> 128 µg/mL
same,MIC,Staph. aureus [1]; [8],16 µg/mL
same,MIC,Staph. aureus [1]; [9],> 128 µg/mL
same,MIC,Strep. PN; read-out: MIC,32 µg/mL
same,MIC,Staph. epi [2],128 µg/mL
same,MIC,Staph. epi [2]; [10],32 µg/mL
same,MIC,Strep. A; [11],4 µg/mL
same,MIC,Strep. D; strain 2041,> 128 µg/mL
same,MIC,Strep. D; strain X66,> 128 µg/mL
same,MIC,"H. influ. [3]; strain 76, read-out: MIC",64 µg/mL
same,MIC,H. influ. [3]; strain C.L.,> 128 µg/mL
same,MIC,E. coli; strain EC14,> 128 µg/mL
same,MIC,E. coli; strain N10,> 128 µg/mL
same,MIC,E. coli; strain TEM,> 128 µg/mL
same,MIC,Klebsiella; Klebsiella,> 128 µg/mL
same,MIC,"Klebsiella; Table I, agar dilution, strain KAE",> 128 µg/mL
same,MIC,"Klebsiella; Table I, agar dilution, strain X68",> 128 µg/mL
"CC1=C(C(=O)O)N2C(=O)C(NC(=O)C(N)c3cc4c(s3)CCCC4)C2SC1 [Ex. 5, D-7-[(4,5,6,7-tetrahydro-2-benzothienyl)glycylamido]-3-methyl-3-cephem-4-carboxylic acid]",MIC,Staph. epi [4]; strain 219,0.5 µg/mL
same,MIC,Staph. epi [4]; strain 269,2 µg/mL
same,MIC,Staph. epi [4]; strain 270,0.5 µg/mL
same,MIC,Staph. epi [4]; strain 285,1 µg/mL
same,MIC,Staph. epi [4]; strain 286,0.25 µg/mL
same,MIC,Staph. epi [4]; strain EPI1,4 µg/mL
same,MIC,Staph. aureus [1]; strain S13E,8 µg/mL
same,MIC,Staph. aureus [1]; strain V41,16 µg/mL
same,MIC,Staph. aureus [1]; strain X1.1,0.25 µg/mL
same,MIC,Staph. aureus [1]; strain X400,64 µg/mL
same,MIC,Strep. PN,0.25 µg/mL
same,MIC,Staph. aureus [5]; strain 239,0.5 µg/mL
same,MIC,Staph. aureus [5]; strain S224,0.5 µg/mL
same,MIC,Staph. aureus [5]; strain S225,0.5 µg/mL
same,MIC,Staph. aureus [5]; strain S226,0.5 µg/mL
same,MIC,Staph. aureus [5]; strain S227,0.5 µg/mL
same,MIC,Staph. aureus [5]; strain S228,0.5 µg/mL
same,MIC,Staph. aureus [5]; strain S229,1 µg/mL
same,MIC,Staph. aureus [5]; strain S230,0.5 µg/mL
same,MIC,Staph. aureus [5]; strain S231,0.25 µg/mL
same,MIC,Staph. aureus [5]; strain S234,1 µg/mL
same,MIC,Staph. aureus [5]; strain S237,0.5 µg/mL
same,MIC,Staph. aureus [5]; strain S238,1 µg/mL
same,MIC,"Staph. epi [2]; Table I, agar dilution, strain 222",0.5 µg/mL
same,MIC,"Staph. epi [2]; Table I, agar dilution, strain EPI1",2 µg/mL
same,MIC,"Strep. A; Table I, agar dilution, strain C203",0.06 µg/mL
same,MIC,H. influ. [6]; strain 76,8 µg/mL
same,MIC,H. influ. [6]; strain 105,4 µg/mL
same,MIC,H. influ. [6]; strain 158,4 µg/mL
same,MIC,H. influ. [6]; strain 164,4 µg/mL
same,MIC,H. influ. [6]; strain 169,16 µg/mL
same,MIC,H. influ. [6]; strain 171,16 µg/mL
same,MIC,H. influ. [6]; strain 312,4 µg/mL
same,MIC,H. influ. [6]; strain 1683,4 µg/mL
same,MIC,H. influ. [6]; strain 1930,16 µg/mL
same,MIC,H. influ. [6]; strain 4842,4 µg/mL
same,MIC,H. influ. [6]; strain C.L.,16 µg/mL
same,MIC,H. influ. [6]; strain HESS,16 µg/mL
same,MIC,H. influ. [6]; strain M366,> 64 µg/mL
same,MIC,H. influ. [6]; strain M370,4 µg/mL
same,MIC,H. influ. [6]; strain M371,4 µg/mL
same,MIC,H. influ. [6]; strain R465,16 µg/mL
same,MIC,H. influ. [6]; strain STEL,> 64 µg/mL
same,MIC,H. influ. [3]; strain 76,4 µg/mL
same,MIC,H. influ. [3]; strain C.L.,16 µg/mL
same,MIC,"Klebsiella; Table I, agar dilution, strain X26",2 µg/mL
"CC1=C(C(=O)O)N2C(=O)C(NC(=O)[C@H](N)c3cc4c(Cl)cccc4s3)C2SC1 (stereo partly drawn) [Ex. 7A, D-7-(4-chloro-2-benzothienylglycylamido)-3-methyl-3-cephem-4-carboxylic acid]",MIC,"Staph. epi [4]; strain 219, read-out: MIC",0.5 µg/mL
same,MIC,"Staph. epi [4]; strain 269, read-out: MIC",1 µg/mL
same,MIC,"Staph. epi [4]; strain 270, read-out: MIC",2 µg/mL
same,MIC,"Staph. epi [4]; strain 285, read-out: MIC",1 µg/mL
same,MIC,"Staph. epi [4]; strain 286, read-out: MIC",0.25 µg/mL
same,MIC,"Staph. epi [4]; strain EPI1, read-out: MIC",4 µg/mL
same,MIC,Staph. aureus [1]; [7],2 µg/mL
same,MIC,Staph. aureus [1]; [8],0.5 µg/mL
same,MIC,Staph. aureus [1]; [9],32 µg/mL
same,MIC,Strep. PN; read-out: MIC,0.5 µg/mL
same,MIC,"Staph. aureus [5]; Staphylococcus aureus, strain 239, read-out: MIC",0.5 µg/mL
same,MIC,"Staph. aureus [5]; Staphylococcus aureus, strain S224, read-out: MIC",0.5 µg/mL
same,MIC,"Staph. aureus [5]; Staphylococcus aureus, strain S225, read-out: MIC",0.5 µg/mL
same,MIC,"Staph. aureus [5]; Staphylococcus aureus, strain S226, read-out: MIC",0.5 µg/mL
same,MIC,"Staph. aureus [5]; Staphylococcus aureus, strain S227, read-out: MIC",0.5 µg/mL
same,MIC,"Staph. aureus [5]; Staphylococcus aureus, strain S228, read-out: MIC",0.5 µg/mL
same,MIC,"Staph. aureus [5]; Staphylococcus aureus, strain S229, read-out: MIC",0.5 µg/mL
same,MIC,"Staph. aureus [5]; Staphylococcus aureus, strain S230, read-out: MIC",0.5 µg/mL
same,MIC,"Staph. aureus [5]; Staphylococcus aureus, strain S231, read-out: MIC",0.25 µg/mL
same,MIC,"Staph. aureus [5]; Staphylococcus aureus, strain S234, read-out: MIC",0.5 µg/mL
same,MIC,"Staph. aureus [5]; Staphylococcus aureus, strain S237, read-out: MIC",0.5 µg/mL
same,MIC,"Staph. aureus [5]; Staphylococcus aureus, strain S238, read-out: MIC",0.5 µg/mL
same,MIC,Staph. epi [2]; [10],1 µg/mL
same,MIC,Staph. epi [2]; [12],2 µg/mL
same,MIC,Strep. A; [11],0.25 µg/mL
same,MIC,"Strep. D; strain 2041, read-out: MIC",32 µg/mL
same,MIC,"Strep. D; strain X66, read-out: MIC",32 µg/mL
same,MIC,"H. influ. [6]; strain 76, read-out: MIC",16 µg/mL
same,MIC,"H. influ. [6]; strain 158, read-out: MIC",8 µg/mL
same,MIC,"H. influ. [6]; strain 169, read-out: MIC",8 µg/mL
same,MIC,"H. influ. [6]; strain 312, read-out: MIC",16 µg/mL
same,MIC,"H. influ. [6]; strain 1683, read-out: MIC",4 µg/mL
same,MIC,"H. influ. [6]; strain 1930, read-out: MIC",16 µg/mL
same,MIC,"H. influ. [6]; strain 4842, read-out: MIC",8 µg/mL
same,MIC,"H. influ. [6]; strain C.L., read-out: MIC",32 µg/mL
same,MIC,"H. influ. [6]; strain HESS, read-out: MIC",32 µg/mL
same,MIC,"H. influ. [6]; strain M366, read-out: MIC",32 µg/mL
same,MIC,"H. influ. [6]; strain R465, read-out: MIC",16 µg/mL
same,MIC,"H. influ. [6]; strain STEL, read-out: MIC",32 µg/mL
same,MIC,"H. influ. [3]; strain 76, read-out: MIC",4 µg/mL
same,MIC,E. coli; strain EC14,> 128 µg/mL
same,MIC,E. coli; strain N10,> 128 µg/mL
same,MIC,E. coli; strain TEM,> 128 µg/mL
same,MIC,"Klebsiella; Klebsiella, Table I, agar dilution, strain KAE, read-out: MIC",> 128 µg/mL
same,MIC,Klebsiella; [13],8 µg/mL
same,MIC,Klebsiella; [14],> 128 µg/mL
"CC1=C(C(=O)O)N2C(=O)[C@@H](NC(=O)[C@H](N)c3ccccc3)[C@H]2SC1 [Cephalexin, reference compound]",MIC,Strep. PN; read-out: MIC,2 µg/mL
same,MIC,Staph. epi [2],8 µg/mL
same,MIC,Staph. epi [2]; [12],32 µg/mL
same,MIC,Strep. A,0.5 µg/mL
same,MIC,H. influ. [3]; strain 76,8 µg/mL
same,MIC,H. influ. [3]; strain C.L.,8 µg/mL
same,MIC,Klebsiella; [13],4 µg/mL
same,MIC,Klebsiella; [14],8 µg/mL
